Measurements taken from patent US20090209548A1, “FORMULATION FOR STIMULATING HAIR GROWTH” (Pfizer Inc, priority 2004, published 2009).

Tests used:
[1] = In-vitro human cadaver skin permeation, Franz diffusion cell; format: in vitro ADME; conditions: for Mean Percentage of Radioactivity Recovered at 24 Hours, Dermis / Mean Percentage of Radioactivity Recovered at 24 Hours, Epidermis / Mean Percentage of Radioactivity Recovered at 24 Hours, Receptor / Mean Percentage of Radioactivity Recovered at 24 Hours, Surface / Mean Percentage of Radioactivity Recovered at 24 Hours, Total: Compound 0.96% w/v
Procedure: Experimentally, the flux can be determined by measuring the amount of drug permeation into the receptor compartment of a Franz cell over time. The cumulative drug permeated per cm^2 is than plotted against time and the steady state permeation rate (flux, J) is calculated from the slope of the linear portion of the curve according to Fick's 1st law of diffusion.
In Examples 2-5 infra, the cumulative amount of Compound permeated through the skin as amount per surface area (μg/cm^2) was plotted against time (hours). Flux (μg/cm^2/hr) was determined by calculating the slope of the linear portion of the permeation profile. Drawing III depicts such a calculation. Typical variance in measured flux of 10 replicate samples is about 30-50%. However, if the formulation provides low flux of the Compound, indicating poor permeation through the skin, the variance could be much higher than the typical 30-50%.
This methodology utilizes a device known as the Franz Diffusion Cell. A typical device is depicted in Drawing II. The test is carried out using the following general methodology. A sample of human cadaver skin is inserted in to the area labeled as skin. The skin should be oriented so that the stratum corneum is facing the Donor Compartment and the dermis is facing the Receptor Compartment. The Receptor Compartment will be filled with a predefined solution (based on solubility of test agent). A dose of test agent, in a defined volume, is inserted into the Donor Compartment so that it may come in contact with the skin sample and potentially diffuse thru the skin into the Receptor Compartment. Samples of solution are then withdrawn from Receptor Compartment at defined time points and the concentration of test agent is determined. The amount of test agent permeated per cm^2 of skin is plotted versus time and the flux of the test agent is calculated as described above. The reader's attention is directed to Example 2, which provides a more detailed discussion of this test.
As with any testing method, the results can vary depending upon how the test is carried out. […] Thus, as used in this application including the claims, any flux determination should be carried by controlling the following parameters: • 1) Apparatus—The apparatus should be a Franz Diffusion Cell. Each cell should have a cell volume of 5.4 to 5.5 ml. Ten (10) cells should be utilized per formulation (i.e. both the test formulation and the reference formulation). As is standard in the field, the results are reported as the mean. • 2) Skin—Skin samples used for both the test formulation and the reference formulation should be human cadaver skin obtained from a single donor, who is […], between the ages of 50 and 75 and is obtained from the subjects back. […] The surface area of the skin samples should be 0.635 cm^2 (internal diameter of opening of 9 mm). The donor compartment should be maintained at room temperature (see Table A for specifics). • 3) Testing—Testing should be carried out for 24 hours. Sample should be withdrawn at the initiation of testing, and 2, 4, 12, 16, and 24 hours after initiation of testing. The sample volume should be 0.5 ml. The Compound should be present at identical concentrations in both the test formulation and the reference formulation (w/v for liquids and w/w for semi-solids). This concentration should be equal to that used in the final dosage form (i.e., what is being developed for eventual human application). A dose volume of 10 μl/0.635 cm^2 should be used. • 4) Receptor Solution—0.1% (w/v) Brij-98 in Dulbecco's phosphate buffered saline, pit 6.9 (KH2PO4 14.7 mM and Na2HPO4 80.9 mM). • 5) Barrier Integrity—The barrier integrity of human cadaver donor skin is assessed to ensure that changes in flux are attributed to the formulation versus a faulty skin barrier (e.g., cut, scrape, lesion, etc). […] The receptor fluid is assayed for these compounds. […]

hair growth cycle = conditions: animal studies; topical; co-pending application 60/544,116; cited from earlier work
[2] = Table 2, vehicle 63.5:20:8:7.5% w/w EtOH/PG/CPE-215/Water
[3] = Table 2, vehicle 70:30% w/w EtOH/PG
[4] = Table 3, vehicle 60:20:20% w/w EtOH/PG/IPM
[5] = Table 3, vehicle 63.5:20:8:7.5% w/w EtOH/PG/CPE-215/Water
[6] = Table 4, vehicle 60:20:20% w/w EtOH/PG/IPM, skin 1.03-1.19 mm
[7] = Table 4, vehicle 70:20:10% w/w EtOH/PG/IPM, skin 1.03-1.19 mm

- Flux ([1]; Example 3, Compound 0.96% w/v in ethanol:propylene glycol:Cyclopentadecanolide:Water (63.5:20:8:7.5% w/w/w/w), skin 0.71-0.96 mm and 0.90-1.04 mm): 0.053±0.003 μg/cm^2/hr
- Flux ([1]; Example 3, Compound 0.96% w/v in reference formulation (70% ethanol:30% propylene glycol w/w), skin 0.71-0.96 mm and 0.90-1.04 mm): 0.004±0.006 μg/cm^2/hr
- Flux ([1]; Example 4, carrier ethanol:propylene glycol:Cyclopentadecanolide:Water (63.5:20:8:7.5% w/w/w/w), skin 0.71-0.96 mm and 0.90-1.04 mm): 0.022±0.007 μg/cm^2/hr
- Flux ([1]; Example 4, carrier ethanol:propylene glycol:IPM (60:20:20% w/w/w), skin 0.71-0.96 mm and 0.90-1.04 mm): 0.017±0.008 μg/cm^2/hr
- Flux ([1]; Example 5, carrier ethanol:propylene glycol:IPM (60:20:20% w/w/w), skin 1.03-1.19 mm): 0.011±0.003 μg/cm^2/hr
- Flux ([1]; Example 5, carrier ethanol:propylene glycol:IPM (70:20:10% w/w/w), skin 1.03-1.19 mm): 0.007±0.003 μg/cm^2/hr
- Flux ([1]; Example 6, Compound 1.86% w/v, carrier EtOH/PG/DMI (dimethyl isosorbide) (60:30:10% w/w)): 0.036±0.0336 μg/cm^2/hr
- Flux ([1]; Example 6, Compound 1.86% w/v, carrier EtOH/PG/Miglyol 840 (50:30:20% w/w/w)): 0.11±0.007 μg/cm^2/hr
- Flux ([1]; Example 6, Compound 1.86% w/v, carrier ethanol:propylene glycol:IPM (50:30:20% w/w/w)): 191±0.026 μg/cm^2/hr
- Skin permeation as compared with the reference formulation ([1]; FIG. 4, carrier comprising a penetration enhancer (Cyclopentadecanolide) vs reference formulation): greatly enhanced
- Mean Percentage of Radioactivity Recovered at 24 Hours, Dermis [1, 2]: 0.61%
- Mean Percentage of Radioactivity Recovered at 24 Hours, Epidermis [1, 2]: 8.50%
- Mean Percentage of Radioactivity Recovered at 24 Hours, Receptor [1, 2]: 0.56%
- Mean Percentage of Radioactivity Recovered at 24 Hours, Surface [1, 2]: 84.77%
- Mean Percentage of Radioactivity Recovered at 24 Hours, Total [1, 2]: 94.43%
- Mean Percentage of Radioactivity Recovered at 24 Hours, Dermis [1, 3]: 0.06%
- Mean Percentage of Radioactivity Recovered at 24 Hours, Epidermis [1, 3]: 2.53%
- Mean Percentage of Radioactivity Recovered at 24 Hours, Receptor [1, 3]: 0.05%
- Mean Percentage of Radioactivity Recovered at 24 Hours, Surface [1, 3]: 79.30%
- Mean Percentage of Radioactivity Recovered at 24 Hours, Total [1, 3]: 81.94%
- Mean Percentage of Radioactivity Recovered at 24 Hours, Dermis [1, 4]: 0.78%
- Mean Percentage of Radioactivity Recovered at 24 Hours, Epidermis [1, 4]: 8.04%
- Mean Percentage of Radioactivity Recovered at 24 Hours, Receptor [1, 4]: 0.14%
- Mean Percentage of Radioactivity Recovered at 24 Hours, Surface [1, 4]: 79.28%
- Mean Percentage of Radioactivity Recovered at 24 Hours, Total [1, 4]: 88.24%
- Mean Percentage of Radioactivity Recovered at 24 Hours, Dermis [1, 5]: 0.76%
- Mean Percentage of Radioactivity Recovered at 24 Hours, Epidermis [1, 5]: 8.71%
- Mean Percentage of Radioactivity Recovered at 24 Hours, Receptor [1, 5]: 0.16%
- Mean Percentage of Radioactivity Recovered at 24 Hours, Surface [1, 5]: 79.36%
- Mean Percentage of Radioactivity Recovered at 24 Hours, Total [1, 5]: 88.99%
- Mean Percentage of Radioactivity Recovered at 24 Hours, Dermis [1, 6]: 1.00%
- Mean Percentage of Radioactivity Recovered at 24 Hours, Epidermis [1, 6]: 12.00%
- Mean Percentage of Radioactivity Recovered at 24 Hours, Receptor [1, 6]: 0.07%
- Mean Percentage of Radioactivity Recovered at 24 Hours, Surface [1, 6]: 73.00%
- Mean Percentage of Radioactivity Recovered at 24 Hours, Total [1, 6]: 86.1%
- Mean Percentage of Radioactivity Recovered at 24 Hours, Dermis [1, 7]: 1.04%
- Mean Percentage of Radioactivity Recovered at 24 Hours, Epidermis [1, 7]: 12.27%
- Mean Percentage of Radioactivity Recovered at 24 Hours, Receptor [1, 7]: 0.10%
- Mean Percentage of Radioactivity Recovered at 24 Hours, Surface [1, 7]: 75.24%
- Mean Percentage of Radioactivity Recovered at 24 Hours, Total [1, 7]: 88.66%
Structure (SMILES): Cn1nc(O[C@@H]2c3cc(S(=O)(=O)c4cccc(O)c4)ccc3OC(C)(C)[C@@]2(C)O)ccc1=O [Compound, 6-[[(3S,4R)-3,4-dihydro-3-hydroxy-6-[(3-hydroxyphenyl)sulfonyl]-2,2,3-trimethyl-2H-1-benzopyran-4-yl]oxy]-2-methyl-3(2H)-pyridazinone]
- Effect on the hair growth cycle (hair growth cycle): alters the hair growth cycle by inducing anagen
